Here are results for 1 compound from ChEMBL document CHEMBL5390218, “Benzimidazole derivatives as tubulin polymerization inhibitors: Design, synthesis and in vitro cytotoxicity studies” (Bioorg Med Chem Lett, 2023).

The source made the active and inactive calls. The rule behind the calls is not given here.

Data set [1] deals with SK-MEL-28. Briefly: Induction of morphological changes in human SK-MEL-28 cells assessed as production of apoptotic bodies by ethidium bromide/acridine orange staining based analysis. It counts as functional, cell-based. The conditions noted are these: dose 1-5 µM.
The subject of data set [2] is SK-MEL-28. Briefly: Induction of morphological changes in human SK-MEL-28 cells assessed as bright pyknotic nuclei at 1 to 5 uM measured after 48 hrs DAPI staining based analysis. The format is functional, cell-based. The conditions noted are these: dose 1-5 µM.
Data set [3] can be described thus: Cytotoxicity against NRK-52E cells assessed as inhibition in cell growth measured after 72 hrs by MTT assay. The format is toxicity, cell-based. To be noted: rat. In general terms: Tetrazolium dyes change colour on reduction, which living cells bring about.
The next data set concerns MCF7. Briefly: Anticancer activity against human MCF7 cells assessed as inhibition in cell growth measured after 72 hrs by MTT assay. It counts as functional, cell-based. The conditions noted are these: MCF7, 72 h.
The test system of another data set is B16-F10. Briefly: Anticancer activity against mouse B16-F10 cells assessed as inhibition in cell growth measured after 72 hrs by MTT assay. The conditions noted are these: B16-F10, 72 h. The format is functional, cell-based.
The test system of data set [4] is SK-MEL-28. Briefly: Inhibition of cell migration in human SK-MEL-28 cells at 1 to 5 uM incubated for 0 to 48 hrs by phase-contrast microscopy. It counts as functional, cell-based. The conditions noted are these: dose 1-5 µM, time 0-48 hrs.
The subject of data set [5] is SK-MEL-28. Briefly: Inhibition of cell migration in human SK-MEL-28 cells at 1 to 5 uM incubated for 0 to 48 hrs by wound healing assay. The conditions noted are these: dose 1-5 µM, time 0-48 hrs. It counts as functional, cell-based.
The test system of data set [6] is SK-MEL-28. Briefly: Anticancer activity against human SK-MEL-28 cells assessed as inhibition in cell growth measured after 72 hrs by MTT assay. The format is functional, cell-based. The conditions noted are these: SK-MEL-28, 72 h.
Data set [7] concerns SK-MEL-28. The experiment in a line: Induction of ROS generation in human SK-MEL-28 cells by DCFDA staining based analysis. The format is functional, cell-based. The conditions noted are these: dose 1-5 µM.
Data set [8] relates to SK-MEL-28. Briefly: Induction of morphological changes in human SK-MEL-28 cells assessed as bright fragmented nuclei at 1 to 5 uM measured after 48 hrs DAPI staining based analysis. The format is functional, cell-based. The conditions noted are these: dose 1-5 µM.
Data set [9] is described as follows: Selectivity index, ratio of IC50 for NRK-52E cells to ratio of IC50 for human HCT-116 cells. It counts as toxicity. To be noted: rat (NRK-52E), NRK-52E cells versus HCT-116 cells, read-out: Selectivity Index.
Data set [10] in a line: Selectivity index, ratio of IC50 for NRK-52E cells to ratio of IC50 for human MCF7 cells. The conditions noted are these: rat (NRK-52E), NRK-52E cells versus MCF7 cells, read-out: Selectivity Index. It counts as toxicity.
Data set [11] concerns SK-MEL-28. The experiment in a line: Induction of morphological changes in human SK-MEL-28 cells assessed as appearance of nuclei at 1 to 5 uM measured after 48 hrs DAPI staining based analysis. The format is functional, cell-based. To be noted: dose 1-5 µM.
Data set [12] concerns SK-MEL-28. The experiment in a line: Induction of morphological changes in human SK-MEL-28 cells assessed as chromatin condensation at 1 to 5 uM measured after 48 hrs DAPI staining based analysis. It counts as functional, cell-based. The conditions noted are these: dose 1-5 µM.
Data set [13] concerns SK-MEL-28. Briefly: Induction of morphological changes in human SK-MEL-28 cells assessed as nuclear shrinkage at 1 to 5 uM measured after 48 hrs DAPI staining based analysis. It counts as functional, cell-based. To be noted: dose 1-5 µM.
For the next data set, the system named is A549. The experiment in a line: Anticancer activity against human A549 cells assessed as inhibition in cell growth measured after 72 hrs by MTT assay. It counts as functional, cell-based. To be noted: A549, 72 h.
Data set [14] deals with SK-MEL-28. The experiment in a line: Induction of morphological changes in human SK-MEL-28 cells assessed as cell shrinkage by ethidium bromide/acridine orange staining based analysis. It counts as functional. The conditions noted are these: dose 1-5 µM.
The subject of another data set is HCT-116. The experiment in a line: Anticancer activity against human HCT-116 cells assessed as inhibition in cell growth measured after 72 hrs by MTT assay. It counts as functional, cell-based. The conditions noted are these: HCT-116, 72 h.
The subject of data set [15] is SK-MEL-28. The experiment in a line: Inhibition of colony formation in human SK-MEL-28 cells incubated for 48 hrs by crystal violet staining based colony formation assay. To be noted: dose 1-5 µM. The format is functional, cell-based.
Data set [16] can be described thus: Selectivity index, ratio of IC50 for NRK-52E cells to ratio of IC50 for mouse B16-F10 cells. The format is toxicity. To be noted: NRK-52E cells versus B16-F10 cells, read-out: Selectivity Index.
The test system of data set [17] is SK-MEL-28. The experiment in a line: Induction of morphological changes in human SK-MEL-28 cells assessed as chromatin condensation by ethidium bromide/acridine orange staining based analysis. It counts as functional, cell-based. To be noted: dose 1-5 µM.
A short description of data set [18]: Selectivity index, ratio of IC50 for NRK-52E cells to ratio of IC50 for human A549 cells. The format is toxicity. The conditions noted are these: rat (NRK-52E), NRK-52E cells versus A549 cells, read-out: Selectivity Index.
Data set [19] can be described thus: Selectivity index, ratio of IC50 for NRK-52E cells to ratio of IC50 for human SK-MEL-28 cells.
The subject of data set [20] is SK-MEL-28. The experiment in a line: Induction of morphological changes in human SK-MEL-28 cells assessed as membrane blebbing by ethidium bromide/acridine orange staining based analysis. The format is functional, cell-based. To be noted: dose 1-5 µM.

Usually IC50 stands for the concentration at which inhibition is half-maximal. Consider `COc1cc(-c2nc3cc(C)ccc3[nH]2)ccc1OCC(=O)N1CCc2ccccc2C1`, for which the Activity entry in the data set with SK-MEL-28 [1], in the data set on SK-MEL-28 [7], with SK-MEL-28 [14], in the data set on SK-MEL-28 [17] and with SK-MEL-28 [20] was “Dose-Dependent Effect” each time. Also, the outcome in the data set with SK-MEL-28 [2], in the data set on SK-MEL-28 [8], in the data set on SK-MEL-28 [11], with SK-MEL-28 [12] and with SK-MEL-28 [13] was Active. Further, the IC50 at 72 h in data set [3] came to 51.9 µM. The IC50 in the data set on MCF7 stood at 5.9 µM; in the data set with B16-F10, 4.76 µM; in the data set with SK-MEL-28 [6], 2550 nM; in the data set on A549, 5.5 µM; in the data set with HCT-116, 6.04 µM. For the same compound, the inhibition entry in the data set on SK-MEL-28 [4] and in the data set on SK-MEL-28 [5] was “Active” each time. Further, the selectivity ratio in [9] is 8.6; in [10], 8.8; in [16] it was 10.9; in data set [18], 9.4. Further, the inhibition entry in the data set on SK-MEL-28 [15] was “Dose-Dependent Effect”. Moreover, the “Selectivity Index” value in [19] is 20.3.
